In the METLIN SMRT retention time set (Domingo-Almenara et al. 2019) one finds RP-LC retention time data, which are given here for 33 compounds.

The nature of the data set: gradient 5% acetonitrile 3 min, to 50% in 2 min, to 85% in 15 min, held 3 min, 100 µL/min. The note with it: column: Zorbax Extend-C18 2.1 x 50 mm; eluents: water / acetonitrile, 0.1% formic acid. In short, it runs like this:
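Pure standards were run in mixtures of ~100 molecules by HPLC coupled to a quadrupole time-of-flight mass spectrometer. The column was a Zorbax Extend-C18 (2.1 × 50 mm, 1.8 μm) at 100 μL/min, with water and acetonitrile each containing 0.1% formic acid, in positive and negative ionization mode. Dead and dwell volumes were 40 μL and 900 μL. Retention time was taken from computationally picked adduct peaks, each manually inspected, with data collected over 3 months.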
Compound `Cc1ccc(NC(=O)Cn2nc(N3CCCCCC3)c3ccccc3c2=O)c(F)c1` gave an RP-LC retention time of 1190 s. As for `COc1ccc(-c2ccc(=O)n(Cc3nc(-c4ccc(Cl)cc4)no3)n2)cc1`, the figure is 1070 s; as for `Cc1cc(N2CCCC2)n2nc(CN3CCN(c4cccc(Cl)c4)CC3)nc2n1`, 663 s. In turn, `CCn1cc(CCNC(=O)c2ccccc2Br)c2cccnc21` came in with an RP-LC retention time of 700 s. In turn, `CCOc1ccc(N2C=C(C(=O)N3CCCC3)S(=O)(=O)c3ccc(F)cc32)cc1` displayed an RP-LC retention time of 872 s.

As for `Cc1ccc(OCc2nc(C)c(C(=O)N3CCC(C(N)=O)CC3)s2)cc1`, the RP-LC retention time worked out at 696 s.

For the compound `Cc1nc2c(c(=O)n1CC(=O)NCc1cccs1)CCN(Cc1ccccc1)C2`, the RP-LC retention time is 608 s. As for `Cc1ccc(C)c2sc(N(C)CC(=O)O)nc12`, the figure is 793 s; as for `CCc1ccc(NC(=O)N2CCN(c3cnn4c(C)nnc4c3)CC2)cc1`, 649 s.

Regarding `Cc1cccc(NC(=O)N2CCC(c3cc(N)on3)CC2)c1C`, the RP-LC retention time turned out to be 685 s. With `Cc1ccc(-n2c(N3CCCC(C(=O)NCC(C)C)C3)nc3ccsc3c2=O)cc1` (stereo not drawn) the figure was 847 s; with `CC1Oc2ccc(-c3csc(NC(=O)c4ccccc4Cl)n3)cc2N(C)C1=O` (stereo not drawn), 968 s.

`CCc1nc(NCc2ccc3c(c2)OCO3)ncc1C(=O)O` had an RP-LC retention time of 766 s. `CCOc1ccccc1NS(=O)(=O)c1ccc(-c2c(C)noc2C)cc1` had an RP-LC retention time of 978 s. As for `O=C(Nc1nc2c(s1)CN(C(=O)C1CC=CCC1)CC2)c1cccs1` (stereo not drawn), the figure is 770 s; as for `Cc1ccc2nc(NC(=O)C3CCN(S(=O)(=O)c4cn(C(C)C)cn4)CC3)sc2c1`, 849 s.

Regarding `COc1cccc(-c2nnc(Cc3nc(-c4ccc5c(c4)OCO5)no3)o2)c1`, the RP-LC retention time worked out at 977 s.

`CCOc1cc(C(=O)Nc2cc(=O)n(C)c(=O)n2C)cc(OCC)c1OCC` registered an RP-LC retention time of 691 s. The compound `COc1ccc(C2CC(=O)N(c3ccc4c(c3)OCCO4)C(=O)C2)cc1` showed an RP-LC retention time of 833 s.

Take `Cc1ccc(NC(=O)N2CCC(n3cnnc3C3CC3)C2)cc1Cl` (stereo not drawn): the RP-LC retention time was found to be 672 s. As for `CCc1nc(-c2cc(S(=O)(=O)Nc3cc(C)ccc3C)c(C)s2)cs1`, the figure is 1160 s; as for `CC(=O)Nc1ccc(S(=O)(=O)N2CCC(C(=O)N3CCN(c4ncccn4)CC3)CC2)cc1`, 666 s. The compound `CN(C)c1ccc(CNC(=O)c2nnc(-c3ccc(S(=O)(=O)N4CCCCC4)cc3)o2)cc1` had an RP-LC retention time of 754 s. Compound `CCc1ccc(CNC(=O)C2CCCN(c3nc4c(s3)c(C)nn4-c3ccc(Cl)cc3)C2)cc1` (stereo not drawn) displayed an RP-LC retention time of 1380 s.

Take `COc1ccc(C)cc1NC(=O)CN1C(=O)C2CCCCN2c2ccc(S(=O)(=O)N(C)C)cc21` (stereo not drawn): the RP-LC retention time came out at 1000 s. Compound `Cc1cccc(OCc2ccc(-c3nc(C#N)c(NCCCN(C)C)o3)o2)c1` showed an RP-LC retention time of 728 s. As for `CSCC(CO)NC(=O)/C=C/c1c(C)[nH]c(=O)[nH]c1=O` (stereo not drawn), the figure is 564 s. The compound `CCN(CC)S(=O)(=O)c1ccc2c(c1)N(CC(=O)NCCCOC)C(=O)C1CCCCN21` (stereo not drawn) yielded an RP-LC retention time of 802 s.

For the compound `CN(CCCNC(=O)C1CCc2nc(N3CCCC3)ncc2C1)c1ccccc1` (stereo not drawn), the RP-LC retention time is 560 s. As for `NCCc1noc(-c2ccccc2)n1`, the figure is 580 s. `CC(C)N1CCC2(CC1)N=C(c1ccc(Br)cc1)CC(c1cc(Cl)ccc1O)N2` (stereo not drawn) came in with an RP-LC retention time of 711 s. With `N#CCCN(c1ccc(C=O)cc1)S(=O)(=O)c1ccccc1` the figure was 770 s; with `Cc1ccc(Cl)cc1N1CCN(c2ccc3cc(S(=O)(=O)N4CCCCC4C)ccc3n2)CC1` (stereo not drawn), 1420 s.
